In PMC12346198 (Cancers, 2025):
Like-named read-outs stand apart in the source and are kept apart here.

Key:
[1] = Thermodynamic solubility in fasted-state simulated intestinal fluid (FaSSIF); assay type: physicochemical; conditions: pH 6.5, LLOQ < 1.56 µM
Description: The thermodynamic solubility analysis in biological media and the quantitative analysis of samples were performed according to the standard protocol at WuXi AppTec (Shanghai, China).

[2] = Single-dose IV and PO pharmacokinetics in mice; assay type: in vivo, male C57BL/6 mice; conditions: for AUC: analyte = dosed compound; for Cmax: read-out: Cmax, Geo Mean; for Tmax: read-out: Tmax, Geo Mean
Description: The in-life study and quantitative analysis of plasma samples using LC/MS were performed at Charles River Laboratories, Inc. (Wilmington, MA, USA).

[3] = Pharmacokinetic modeling of valine pro-drug conversion to parent; assay type: in vivo, mice
Description: A total of 36 mice with available PK data were included for non-linear mixed-effects analysis using NONMEM (version 7.5.0, ICON Development Solutions, Ellicott City, MD, USA), implementing the first-order conditional estimation with interaction (FOCE-I). R (version 4.2.0, R Foundation for Statistical Computing, Vienna, AUT, http://www.r-project.org) was used for visual diagnostics. […] The analyte (valine conjugate and parent compound) plasma concentration–time data were confirmed to have a biphasic distribution and elimination and were therefore fit separately to a linear two-compartment model with a depot for oral administration. Each model was parametrized in terms of clearance (CL), the volume of distribution of the central compartment (V1), intercompartmental clearance (Q), and the volume of the peripheral compartment (V3). Interindividual variability (IIV) for each parameter was assumed to be log-normally distributed, and residual variability (RUV) was described with a proportional error model. The PK parameter estimates from these independent models (parent compound or valine conjugate) were used as initial estimates for a combined model describing the conversion and disposition of the valine conjugate to the parent drug and associated metabolites. The model estimated the fraction of pro-drug converted to parent drug (Fm), which was used to calculate the first-order rate constant of metabolite formation (Kmet) = Fm × Kel. This rate constant was used to calculate the half-life of the conversion process and the amount of metabolite formed at complete conversion. The rate of metabolite formation was then calculated as the ratio of the amount of metabolite formed to the time required for complete conversion (~5 half-lives), as detailed in Figures S8–S11.

[4] = PO, 40 mg/kg (valine conjugates 40 mg/kg EQV)

solubility thermodynamic [1]: < 1.56 µM
HL_Lambda_z, Geo Mean ([2]; IV, 2 mg/kg (valine conjugates 2 mg/kg EQV)): 1.94 h
IV: Clobs, Geo Mean ([2]; IV, 2 mg/kg (valine conjugates 2 mg/kg EQV), non-compartmental analysis): 0.004 L/h
HL_Lambda_z, Geo Mean [2, 4]: 5.77 h
PO: Cl_Fobs, Geo Mean [2, 4]: 0.59 L/h
AUC ([2]; male, C57BL/6, mouse, plasma, iv, 2 mg/kg, IV, 2 mg/kg (valine conjugates 2 mg/kg EQV), non-compartmental analysis, read-out: AUCall, Geo Mean): 36.1 µM·h
Cmax ([2]; male, C57BL/6, mouse, plasma, iv, 2 mg/kg, IV, 2 mg/kg (valine conjugates 2 mg/kg EQV)): 20.2 µM
AUC ([2]; male, C57BL/6, mouse, plasma, po, 40 mg/kg, PO, 40 mg/kg (valine conjugates 40 mg/kg EQV), non-compartmental analysis, read-out: AUCall, Geo Mean): 4.17 µM·h
Cmax ([2]; male, C57BL/6, mouse, plasma, po, 40 mg/kg, PO, 40 mg/kg (valine conjugates 40 mg/kg EQV)): 0.99 µM
AUC ([2]; male, C57BL/6, mouse, plasma, po, 40 mg/kg, single PO dose, 40 mg/kg or molar equivalent, read-out: AUCall following an oral dose): 4.17 µM·h
Tmax ([2]; male, C57BL/6, mouse, plasma, IV, 2 mg/kg (valine conjugates 2 mg/kg EQV)): 23.4 min
Tmax ([2]; male, C57BL/6, mouse, plasma, PO, 40 mg/kg (valine conjugates 40 mg/kg EQV)): 60 min
clearance ([2]; male, C57BL/6, mouse, plasma, single IV dose, 2 mg/kg or molar equivalent, read-out: Systemic clearance following an IV dose (converted)): 0.0667 mL/min
k el ([3]; C57BL/6, mouse, plasma, model estimate, read-out: Kel, elimination rate constant of valine conjugate (converted)): 0.00853 s⁻¹
Kmet, rate constant of conversion to parent compound ([3]; Kmet = Fm × Kel): 11.9 h⁻¹
Fraction of pro-drug converted to parent (Fm) ([3]; two-compartment model estimate): 39%
Structure (SMILES): CC(C)[C@H](N)C(=O)Oc1ccc(Cl)cc1C(=O)Nc1ccc(C(F)(F)F)cc1 [valine–compound #11]
